Reference: patent publication US20240262812A1, “N-SUBSTITUTED PHENYLSULFONAMIDE COMPOUND AND USE THEREOF” (Shanghai Leado Pharmatech Co., Ltd., priority 2021, published 2024)

Target: T1, mTRPA1 (Mus musculus, UniProt Q8BLA8)
T1 construct: expressed in transfected cells
Experiment: IonWorks Barracuda (IWB) automated patch clamp, TRPA1 inhibitory activity
Type: cell-based
Details: HEK293 cells stably expressing mTRPA1, current induced by AITC, amplitude at +100 mV; read-out: IC50 (inhibition activity on TRPA1)
Procedure: In this example, the inhibitory activity of the compounds prepared in some examples of the present invention on transient receptor potential channel protein ankyrin 1 (TRPA1) was tested. Among them, compound of formula A (WO2010075353) was used as the positive control compound: […]
Test method using IonWorks Barracuda (IWB) automated patch clamp detection: HEK293 cells stably expressing mTRPA1 were placed in the T175 culture flask with DMEM medium containing 15 µg/mL Blasticidin S HCl, 200 µg/mL Hygromycin B and 10% FBS, and cultured in 37° C., 5% CO2 incubator. When the cell density reached about 80%, the culture medium was removed, washed once with phosphate buffered saline (PBS) without calcium and magnesium. 3 mL of Trypsin was added to digest for 2 min, 7 mL of culture solution was added to terminate the digestion. The cells were collected to 15 mL centrifuge tube and centrifuged at 800 rpm for 3 min. After the supernatant was removed, the cells were added to appropriate volume of extracellular fluid for re-suspending, and the cell density was controlled at 2-3×10^6/mL for use in IWB experiment. Extracellular fluid formulation (in mM): 140 NaCl, 5 KCl, 1 MgCl2, 10 HEPES, 0.5 EGTA, 10 Glucose (pH 7.4); intracellular fluid formulation (in mM): 140 CsCl, 10 HEPES, 5 EGTA, 0.1 CaCl2, 1 MgCl2 (pH 7.2). 28 mg/mL of amphotericin B was freshly prepared with DMSO on the day of experiment, and then final concentration of 0.1 mg/mL was prepared with intracellular fluid.
Population patch clamp (PPC) plate was used in IWB experiment. The entire detection process was automatically carried out by the instrument, that is, extracellular fluid was added into 384 wells of PPC plate, and after intracellular fluid was added under PPC plate (in plenum), 6 µL of cell fluid was added for sealing test, and finally the intracellular fluid in plenum was replaced with intracellular fluid containing amphotericin B to establish a whole-cell recording mode after perforating sealed cells. The sampling frequency for recording TPRA1 current was 10 kHz, the cells were clamped at 0 mV, the voltage stimulation command (channel protocol) was a ramp voltage from −100 mV to +100 mV for 300 ms. This voltage stimulation was applied every 10 s, mTRPA1 current was induced by 300 µM AITC.
Data recording and current amplitude measurement export were carried out by IWB software (version 2.5.3, Molecular Devices Corporation, Union City, CA). No statistics was recorded for holes with sealing impedance lower than 20 MΩ. The original current data was corrected by software for leak subtraction. TRPA1 current amplitude was measured at +100 mV. […] If IC50 value of HC030031 exceeded 3 times of the average IC50 value previously obtained on each plate, it would be re-tested. The dose-effect curve of compounds and IC50 were fitted and calculated by GraphPad Prism 5.02 (GraphPad Software, San Diego, CA).
Some compounds of the present invention were subjected to IC50 inhibition activity test using the IonWorks Barracuda (IWB) automated patch clamp detection method.

T1 sequence (Q8BLA8 whole entry): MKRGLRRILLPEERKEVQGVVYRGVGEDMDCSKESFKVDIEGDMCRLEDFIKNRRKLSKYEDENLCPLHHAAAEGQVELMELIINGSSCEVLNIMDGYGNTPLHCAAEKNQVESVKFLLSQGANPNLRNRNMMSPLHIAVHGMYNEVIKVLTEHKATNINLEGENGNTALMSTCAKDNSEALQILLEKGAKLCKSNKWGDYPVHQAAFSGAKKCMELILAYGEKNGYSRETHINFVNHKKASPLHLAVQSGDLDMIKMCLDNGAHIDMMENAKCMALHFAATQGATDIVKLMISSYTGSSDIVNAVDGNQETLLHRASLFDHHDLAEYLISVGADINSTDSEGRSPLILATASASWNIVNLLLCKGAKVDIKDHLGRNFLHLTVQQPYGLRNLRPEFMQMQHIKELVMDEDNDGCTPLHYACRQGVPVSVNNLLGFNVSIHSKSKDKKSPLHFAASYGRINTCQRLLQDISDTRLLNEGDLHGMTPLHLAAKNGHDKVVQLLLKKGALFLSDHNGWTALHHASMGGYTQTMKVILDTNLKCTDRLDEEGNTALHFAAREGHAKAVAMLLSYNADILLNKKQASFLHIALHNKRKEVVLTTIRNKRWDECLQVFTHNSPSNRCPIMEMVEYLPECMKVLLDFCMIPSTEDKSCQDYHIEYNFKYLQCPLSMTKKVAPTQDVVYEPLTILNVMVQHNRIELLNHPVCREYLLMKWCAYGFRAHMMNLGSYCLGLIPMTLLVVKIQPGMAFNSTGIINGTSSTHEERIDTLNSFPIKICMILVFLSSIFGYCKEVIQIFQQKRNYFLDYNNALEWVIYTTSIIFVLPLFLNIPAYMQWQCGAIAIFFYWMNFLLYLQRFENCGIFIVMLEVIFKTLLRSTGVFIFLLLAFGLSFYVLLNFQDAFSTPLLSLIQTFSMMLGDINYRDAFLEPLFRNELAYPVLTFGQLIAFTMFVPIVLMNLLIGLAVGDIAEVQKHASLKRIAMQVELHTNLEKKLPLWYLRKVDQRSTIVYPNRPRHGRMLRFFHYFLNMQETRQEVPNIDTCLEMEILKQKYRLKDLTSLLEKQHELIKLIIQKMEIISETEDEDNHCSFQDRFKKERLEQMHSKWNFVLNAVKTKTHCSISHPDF

Row | IC50 [µM] | Structure (SMILES)
1 | < 1 | CC(N)c1ccc(-c2ccco2)c(NS(=O)(=O)c2ccccc2)c1 (centres unmarked) [IU-9, N-(5-(1-aminoethyl)-2-(furan-2-yl)phenyl)benzenesulfonamide]
2 | 5 to 10 | CNCc1ccc(-c2ccco2)c(NS(=O)(=O)c2cccnc2)c1 [IA-17, N-(2-(furan-2-yl)-5-((methylamino)methyl)phenyl)pyridine-3-sulfonamide]
3 | 1 to 5 | NCc1ccc(-c2ccco2)c(NS(=O)(=O)c2ccc(F)cc2)c1 [ID-2, N-(5-(aminomethyl)-2-(furan-2-yl)phenyl)-4-fluorobenzenesulfonamide]
4 | < 1 | CCC(N)c1ccc(NS(=O)(=O)c2ccccc2)c(-c2ccco2)c1 (centres unmarked) [IU-3, N-(4-(1-aminopropyl)-2-(furan-2-yl)phenyl)benzenesulfonamide]
5 | 1 to 5 | CNCc1ccc(NS(=O)(=O)c2ccccc2F)c(-c2ccco2)c1 [IA-28, 2-Fluoro-N-(2-(furan-2-yl)-4-((methylamino)methyl)phenyl)benzenesulfonamide]
6 | 1 to 5 | CC(N)c1ccc(NS(=O)(=O)c2ccccc2)c(-c2ccco2)c1 (centres unmarked) [IU-2, N-(4-(1-aminoethyl)-2-(furan-2-yl)phenyl)benzenesulfonamide]
7 | 1 to 5 | CNCc1ccc(-c2cccs2)c(NS(=O)(=O)c2cccs2)c1 [IA-47, N-(2-(thiophene-2-yl)-5-((methylamino)methyl)phenyl)thiophene-2-sulfonamide]
8 | < 1 | CC(C)C(N)c1ccc(NS(=O)(=O)c2ccccc2)c(-c2ccco2)c1 (centres unmarked) [IU-5, N-(4-(1-amino-2-methylpropyl)-2-(furan-2-yl)phenyl)benzenesulfonamide]
9 | 20 to 50 | O=S(=O)(Nc1cc(CO)ccc1-c1ccco1)c1ccccc1 [IH, N-(2-(furan-2-yl)-5-(hydroxymethyl)phenyl)benzenesulfonamide]
10 | 1 to 5 | CNCc1ccc(-c2ccoc2)c(NS(=O)(=O)c2ccccc2)c1 [IA-42, N-(2-(furan-3-yl)-5-((methylamino)methyl)phenyl)benzenesulfonamide]
11 | 20 to 50 | CC(=O)NCc1ccc(NS(=O)(=O)c2ccsc2)c(-c2ccco2)c1 [IE, N-(3-(furan-2-yl)-4-(thiophene-3-sulfonamide)benzyl)acetamide]
12 | 50 to 100 | CNCc1ccc(-c2ccco2)cc1NS(=O)(=O)c1ccccc1 [IA-40, N-(5-(furan-2-yl)-2-((methylamino)methyl)phenyl)benzenesulfonamide]
13 | 20 to 50 | CNCc1ccc(-c2ccc[nH]2)c(NS(=O)(=O)c2ccccc2)c1 [IA-50, N-(5-((methylamino)methyl)-2-(1H-pyrrole-2-yl)phenyl)benzenesulfonamide]
14 | 20 to 50 | CNCc1ccc(-c2ccco2)c(NS(=O)(=O)c2ccc(Cl)s2)c1 [IA-22, 5-Chloro-N-(2-(furan-2-yl)-5-((methylamino)methyl)phenyl)thiophene-2-sulfonamide]
15 | 20 to 50 | CNCc1cc(NS(=O)(=O)c2ccccc2)cc(-c2ccco2)c1 [IA-39, N-(3-(furan-2-yl)-5-((methylamino)methyl)phenyl)benzenesulfonamide]
16 | < 1 | CCNCc1ccc(NS(=O)(=O)c2ccsc2)c(-c2ccco2)c1 [IA-32, N-(4-((ethylamino)methyl)-2-(furan-2-yl)phenyl)thiophene-3-sulfonamide]
17 | 5 to 10 | CNCc1ccc(NS(=O)(=O)c2cccnc2)c(-c2ccco2)c1 [IA-31, N-(2-(furan-2-yl)-4-((methylamino)methyl)phenyl)pyridine-3-sulfonamide]
18 | 20 to 50 | O=S(=O)(Nc1cc(CNCC(F)(F)F)ccc1-c1ccco1)c1ccccc1 [IA-25]
19 | 20 to 50 | CNCc1ccc(-c2ccco2)c(NS(=O)(=O)Cc2ccccc2)c1 [IA-24, N-(2-(furan-2-yl)-5-((methylamino)methyl)phenyl)-1-phenylmethanesulfonamide]
20 | 20 to 50 | CNCc1ccc(-c2ccco2)c(NS(=O)(=O)c2ccc(OC(F)(F)F)cc2)c1 [IA-9, 4-Trifluoromethoxy-N-(2-(furan-2-yl)-5-((methylamino)methyl)phenyl)benzenesulfonamide]
